# Source: US10189820
# Conditions: amide bond; 22-membered ring; HATU/DIEA; NMP; 68.9 mM; 140.0 °C; 2 steps
substance,measurement,value
"8-ethyl-10,18,30-trimethyl-7,20-dioxo-7,8,11,12,13,14,15,20,21,28,29,30,31,32-tetradecahydro-benzo[4,5]imidazo[2,1-b]benzo[4,5]imidazo[1,2-i]dipyrazolo[5,1-m:4′,3′-t][1,3,6,9,11,14]hexaazacyclodocosine-3,24-dicarboxamide","ring closure, yield after HPLC",4.56%
